Test results published in patent US9718804B2, “GSK-3 inhibitors” (BRISTOL-MYERS SQUIBB COMPANY, priority 2013, dated 2017).
Read-outs that look alike come from different tables or passages of the source.

Experiments:
GSK3α = GSK3α (Homo sapiens, UniProt P49840); assay: GSK3α kinase assay (Caliper LabChip, fluoresceinated peptide substrate); assay type: biochemical
Experimental: (§1) The kinase assay was performed in V-bottom 384-well plates. […] The reaction was incubated at room temperature for 20 hours and terminated by adding 45 μl of 35 mM EDTA to each sample. The reaction mixture was analyzed on the Caliper LabChip3000 (Caliper, Hopkinton, Mass.) by electrophoretic separation of the unphosphorylated substrate and phosphorylated product. […] Compounds were dissolved at 10 mM in dimethylsulfoxide (DMSO) and evaluated at eleven concentrations. IC50 values were derived by non-linear regression analysis.

pTau = pTau assay (no method described); assay type: cell-based
GSK3β = GSK3β (Homo sapiens, UniProt P49841); assay: GSK3β kinase assay (Caliper LabChip, fluoresceinated peptide substrate); assay type: biochemical
GSK3β, sequence (P49841 whole entry, species assumed): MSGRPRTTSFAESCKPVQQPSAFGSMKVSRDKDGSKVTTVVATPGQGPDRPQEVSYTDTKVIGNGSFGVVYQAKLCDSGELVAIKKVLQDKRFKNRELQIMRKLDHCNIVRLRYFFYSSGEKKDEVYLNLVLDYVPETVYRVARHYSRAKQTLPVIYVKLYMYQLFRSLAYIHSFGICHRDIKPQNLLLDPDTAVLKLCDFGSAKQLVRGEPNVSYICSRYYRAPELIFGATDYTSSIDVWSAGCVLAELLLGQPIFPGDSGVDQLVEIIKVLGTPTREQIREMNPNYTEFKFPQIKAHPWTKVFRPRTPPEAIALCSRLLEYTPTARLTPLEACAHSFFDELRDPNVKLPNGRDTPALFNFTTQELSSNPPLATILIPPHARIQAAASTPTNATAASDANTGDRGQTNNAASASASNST
Experimental: as §1

[1] = first value of the cell, 250 pM enzyme, 20 uM ATP, 20 hours at room temperature, read-out: GSK3β/α (nM): GSK3β IC50

GSK3α, sequence (P49840 whole entry, species assumed): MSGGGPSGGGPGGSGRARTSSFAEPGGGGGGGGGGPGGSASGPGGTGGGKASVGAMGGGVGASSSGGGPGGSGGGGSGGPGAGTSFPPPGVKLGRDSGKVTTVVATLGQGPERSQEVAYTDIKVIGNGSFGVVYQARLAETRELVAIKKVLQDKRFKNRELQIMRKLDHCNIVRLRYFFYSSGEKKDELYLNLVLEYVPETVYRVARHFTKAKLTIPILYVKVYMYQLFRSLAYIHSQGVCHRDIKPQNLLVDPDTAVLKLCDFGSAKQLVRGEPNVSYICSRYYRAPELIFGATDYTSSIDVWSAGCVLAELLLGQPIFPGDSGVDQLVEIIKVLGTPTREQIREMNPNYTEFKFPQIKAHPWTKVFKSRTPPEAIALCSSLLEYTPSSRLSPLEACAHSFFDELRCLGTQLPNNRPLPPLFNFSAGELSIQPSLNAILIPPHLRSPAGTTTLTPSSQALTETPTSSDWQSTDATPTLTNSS

SMILES | IC50 (GSK3α) [nM] | IC50 (pTau) [nM] | IC50 (GSK3β; [1]) [nM] | IC50 (GSK3α; second value of the cell, 250 pM enzyme, 20 uM ATP, 20 hours at room temperature, read-out: GSK3β/α (nM): GSK3α IC50) [nM] | IC50 (GSK3β) [nM]
O=C(Nc1cnc2cccnn12)c1ccnc(Nc2ccc(C(F)(F)F)cn2)c1 [Example 210, N-(Imidazo[1,2-b]pyridazin-3-yl)-2-((5-(trifluoromethyl)pyridin-2-yl)amino)isonicotinamide] | 11 | 2300 | 33 | – | –
Cn1ncc(NC(=O)c2ccnc(Nc3ccc(C(F)(F)F)cn3)c2)c1C1(C)OCCO1 [Example 207, N-(1-Methyl-5-(2-methyl-1,3-dioxolan-2-yl)-1H-pyrazol-4-yl)-2-((5-(trifluoromethyl)pyridin-2-yl)amino)isonicotinamide] | 0.1 | 1.4 | 0.09 | – | –
O=C(Nc1cncc(N2CCOCC2)c1)c1ccnc(Nc2ccc(C(F)(F)F)cn2)c1 [Example 121, N-(5-Morpholinopyridin-3-yl)-2-((5-(trifluoromethyl)pyridin-2-yl)amino)isonicotinamide] | 12 | 1500 | 25 | – | –
O=C(Nc1cnc(F)cc1OCC(F)(F)F)c1ccnc(Nc2ccc(Cl)cn2)c1 [Example 110, 2-((5-Chloropyridin-2-yl)amino)-N-(6-fluoro-4-(2,2,2-trifluoroethoxy)pyridin-3-yl)isonicotinamide] | 0.51 | 170 | 3.8 | – | –
CC1(COc2ccncc2NC(=O)c2ccnc(Nc3ccc(C(F)(F)F)cn3)c2)CC1 [Example 44, N-(4-((1-Methylcyclopropyl)methoxy)pyridin-3-yl)-2-((5-(trifluoromethyl)pyridin-2-yl)amino)isonicotinamide] | 0.33 | 52 | 1.4 | – | –
CCC1(c2cc(Cl)ncc2NC(=O)c2ccnc(Nc3ccc(C(F)(F)F)cn3)c2)OC(C)C(C)O1 (stereo not drawn) [Example 81, N-(6-Chloro-4-(2-ethyl-4,5-dimethyl-1,3-dioxolan-2-yl)pyridin-3-yl)-2-((5-(trifluoromethyl)pyridin-2-yl)amino)isonicotinamide] | 4 | 1900 | 6.7 | – | –
CC[C@@]1(c2cc(Cl)ncc2NC(=O)c2ccnc(Nc3ccc(C(F)(F)F)cn3)c2)OC[C@@H](C)O1 [Example 90, N-(6-Chloro-4-((2R,4R)-2-ethyl-4-methyl-1,3-dioxolan-2-yl)pyridin-3-yl)-2-((5-(trifluoromethyl)pyridin-2-yl)amino)isonicotinamide] | 0.94 | 150 | 2 | – | –
CC(C)Oc1ccncc1NC(=O)c1ccnc(Nc2ccc(C(F)(F)F)cn2)c1 [Example 19, N-(4-(Isopropoxy)pyridin-3-yl)-2-((5-(trifluoromethyl)pyridin-2-yl)amino)isonicotinamide] | 0.55 | 16 | 1.6 | – | –
N#Cc1ccc(Nc2cc(C(=O)Nc3cnccc3-c3ccc(F)cc3F)ccn2)nc1 [Example 57, 2-((5-Cyanopyridin-2-yl)amino)-N-(4-(2,4-difluorophenyl)pyridin-3-yl)isonicotinamide] | 0.59 | 19 | 1.3 | – | –
O=C(Nc1cnccc1-c1ccc(F)cc1F)c1ccnc(Nc2ccc(C(F)(F)F)cn2)c1 [Example 54, N-(4-(2,4-Difluoro-phenyl)pyridin-3-yl)-2-((5-(trifluoromethyl)pyridin-2-yl)amino)isonicotinamide] | 0.96 | 57 | 2.8 | – | –
CC1(c2cc(F)ncc2NC(=O)c2ccnc(Nc3ccc(C(F)(F)F)cn3)c2)OCCO1 [Example 82, N-(6-Fluoro-4-(2-methyl-1,3-dioxolan-2-yl)pyridin-3-yl)-2-((5-(trifluoromethyl)pyridin-2-yl)amino)isonicotinamide] | 1.9 | 230 | 7.1 | – | –
O=C(Nc1cncc(-c2ccccc2F)n1)c1ccnc(Nc2ccc(C(F)(F)F)cn2)c1 [Example 190, N-(6-(2-Fluorophenyl)pyrazin-2-yl)-2-((5-(trifluoromethyl)pyridin-2-yl)amino)isonicotinamide] | 29 | 10000 | 68 | – | –
O=C(Nc1cnccc1-c1ccccc1)c1ccnc(Nc2ccc(Cl)cn2)c1 [Example 59, 2-((5-Chloropyridin-2-yl)amino)-N-(4-phenylpyridin-3-yl)isonicotinamide] | 0.39 | 45 | 0.9 | – | –
CC(C)S(=O)(=O)c1ccncc1NC(=O)c1ccnc(Nc2ccc(C(F)(F)F)cn2)c1 [Example 186, N-(4-(Isopropylsulfonyl)pyridin-3-yl)-2-((5-(trifluoromethyl)pyridin-2-yl)amino)isonicotinamide] | – | 2 | – | 0.04 | 1.2
O=C(Nc1cn[nH]c1-c1ccccc1)c1ccnc(Nc2ccc(C(F)(F)F)cn2)c1 [Example 205, N-(5-Phenyl-1H-pyrazol-4-yl)-2-((5-(trifluoromethyl)pyridin-2-yl)amino)isonicotinamide] | 20 | 10000 | 28 | – | –
Cn1ncc(NC(=O)c2ccnc(Nc3ccc(C(F)(F)F)cn3)c2)c1C(C)(O)C1CC1 (stereo not drawn) [Example 209, N-(5-(1-Cyclopropyl-1-hydroxyethyl)-1-methyl-1H-pyrazol-4-yl)-2-((5-(trifluoromethyl)pyridin-2-yl)amino)isonicotinamide] | 0.21 | 21 | 0.3 | – | –
N#CC1(c2ccc(Nc3cc(C(=O)Nc4cncc(-c5ccccc5F)c4)ccn3)nc2)CC1 [Example 163, 2-((5-(1-Cyanocyclopropyl)pyridin-2-yl)amino)-N-(5-(2-fluorophenyl)pyridin-3-yl)isonicotinamide] | 1.1 | 610 | 3.2 | – | –
O=C(Nc1cnc(Cl)cc1N1CCC(F)(F)CC1)c1ccnc(Nc2ccc(C(F)(F)F)cn2)c1 [Example 70, N-(6-Chloro-4-(4,4-difluoropiperidin-1-yl)pyridin-3-yl)-2-((5-(trifluoromethyl)pyridin-2-yl)amino)isonicotinamide] | 2.6 | 564 | 7.6 | – | –
CC(C)(C)COc1ccncc1NC(=O)c1ccnc(Nc2ccc(C(F)(F)F)cn2)c1 [Example 17, N-(4-(Neopentyloxy)pyridin-3-yl)-2-((5-(trifluoromethyl)pyridin-2-yl)amino)isonicotinamide] | 0.89 | 43 | 1.6 | – | –
CN(C)S(=O)(=O)c1ccc(Nc2cc(C(=O)Nc3cnccc3OCC(F)(F)F)ccn2)nc1 [Example 30, 2-((5-(N,N-Dimethylsulfamoyl)pyridin-2-yl)amino)-N-(4-(2,2,2-trifluoroethoxy)pyridin-3-yl)isonicotinamide] | 0.31 | 24 | 0.5 | – | –
CC[C@@]1(c2cc(Cl)ncc2NC(=O)c2ccnc(Nc3ccc(C(F)(F)F)cn3)c2)OC[C@@H](C(F)(F)F)O1 [Example 85, N-(6-Chloro-4-((2R,4S)-2-ethyl-4-(trifluoromethyl)-1,3-dioxolan-2-yl)pyridin-3-yl)-2-((5-(trifluoromethyl)pyridin-2-yl)amino)isonicotinamide] | 35 | 5500 | 64 | – | –
Cc1ccc(Nc2cc(C(=O)Nc3cncc(-c4ccccc4F)c3)ccn2)nc1C [Example 143, 2-((5,6-Dimethylpyridin-2-yl)amino)-N-(5-(2-fluorophenyl)pyridin-3-yl)isonicotinamide] | 6 | 2800 | – | – | 8.7
N#Cc1ccc(Nc2cc(C(=O)Nc3cnccc3-c3ccc(F)cc3)ccn2)nc1 [Example 56, 2-((5-Cyanopyridin-2-yl)amino)-N-(4-(4-fluorophenyl)pyridin-3-yl)isonicotinamide] | 0.98 | 36 | 2.4 | – | –
COc1ccc(Nc2cc(C(=O)Nc3cncc(-c4ccccc4F)c3)ccn2)nc1OC [Example 151, 2-((5,6-Dimethoxypyridin-2-yl)amino)-N-(5-(2-fluorophenyl)pyridin-3-yl)isonicotinamide] | 2.4 | 510 | 6 | – | –
CCOc1ccncc1NC(=O)c1ccnc(Nc2nccc3ccccc23)c1 [Example 12, N-(4-Ethoxypyridin-3-yl)-2-(isoquinolin-1-ylamino)isonicotinamide] | 35 | 5400 | 5.9 | – | –
O=C(Nc1cncc2ccccc12)c1ccnc(Nc2ccc(C(F)(F)F)cn2)c1 [Example 64, N-(Isoquinolin-4-yl)-2-((5-(trifluoromethyl)pyridin-2-yl)amino)isonicotinamide] | 3.1 | 610 | 10 | – | –
CC(C)(C)COc1cc(F)ncc1NC(=O)c1ccnc(Nc2ccc(C(F)(F)F)cn2)c1 [Example 75, N-(6-Fluoro-4-(neopentyloxy)pyridin-3-yl)-2-((5-(trifluoromethyl)pyridin-2-yl)amino)isonicotinamide] | 2.4 | 830 | 5.1 | – | –
O=C(Nc1cnccc1-c1ccc(F)cc1)c1ccnc(Nc2cccc(Cl)n2)c1 [Example 48, 2-((6-Chloropyridin-2-yl)amino)-N-(4-(4-fluorophenyl)pyridin-3-yl)isonicotinamide] | 1.9 | 270 | 2.9 | – | –
N#Cc1cnn(-c2cncc(NC(=O)c3ccnc(Nc4cccc(C(F)(F)F)n4)c3)c2)c1 [Example 122, N-(5-(4-Cyano-1H-pyrazol-1-yl)pyridin-3-yl)-2-((6-(trifluoromethyl)pyridin-2-yl)amino)isonicotinamide] | 2.2 | 2000 | 6.9 | – | –
